Results reported in ChEMBL document CHEMBL5726175, “sGC stimulators” (2019).

Experiment: sGC-HEK-cGMP Assay: Human embryonic kidney cells (HEK293), endogenously expressing soluble guanylate cyclase (sGC), were used to evaluate the activity of test compounds. Compounds stimulating the sGC enzyme should cause an increase in the intracellular concentration of cGMP. HEK 293 cells were seeded in Dulbecco's Modification of Eagle's Medium supplemented with fetal bovine serum (10% final) and penicillin (100 U/mL)/streptomycin (100 μg/mL) in a 50 μL volume at a density of 1.5×10^4 cells/well in a poly-D-lysine coated 384 well flat bottom plate. Cells were incubated overnight at 37° C. in a humidified chamber with 5% CO2. Medium was aspirated and cells were washed with 1× Hank's Buffered Saline Salt Solution (50 μL). Cells were then incubated for 15 minutes at 37° C. with 50 μL of a 0.5 mM 3-isobutyl-1-methylxanthine (IBMX) solution. Test article and Diethylenetriamine NONOate (DETA-NONOate) solutions (x μM concentration for test article solution and 10 μM concentration for DETA-NONOate solution; wherein x is one of the following concentrations: 0.029 nM to 30000 nM). were then added to the assay mixture and the resulting mixture incubated at 37° C. for 20 minutes. After the 20 minute incubation, the assay mixture was aspirated and 10% acetic acid containing 150 ng/mL+3-cGMP (internal standard for LCMS) (50 μL) was added to the cells. The plate was incubated at 4° C. for 30 minutes in the acetic acid solution to stop the reaction and lyse the cells. The plates were then centrifuged at 1,000 g for 3 minutes at 4° C. and the supernatant transferred to a clean reaction plate for LCMS analysis.cGMP concentrations were determined from each sample using the LCMS conditions below (Table 5) and calculated standard curve. The standard curve was prepared in 10% acetic acid with 150 ng/mL+3cGMP (isotopically labelled cGMP with a weight 3 units higher than wild type) with the following final concentrations of cGMP in ng/mL: 1, 5, 10, 50, 100, 250, 500, 1000, 2000.
Format: cell-based

Compound	EC50
O=COC1CNCCN1c1nc(-c2cc(-c3ccon3)n(Cc3ccccc3F)n2)ncc1F (centres undefined)	> 1 µM
COc1ccc2c(c1)CCN(c1nc(-c3cc(-c4ccon4)n(Cc4ccccc4F)n3)ncc1F)C2OC=O (centres undefined)	< 0.1 µM
O=CO[C@H](Cc1ccc(O)cc1)Nc1nc(-c2cc(-c3ccon3)n(Cc3ccccc3F)n2)ncc1F	> 1 µM
C[C@H]1CCCN(c2nc(-c3cc(-c4ccon4)n(Cc4cccc(F)c4F)n3)ncc2F)[C@H]1OC=O	< 0.1 µM
Fc1ccccc1Cn1nc(-c2ncc(F)c(N3CCCC4CC43)n2)cc1-c1ccon1 (centres undefined)	in the range around 0.55 µM
O=COC1c2[nH]cnc2CCN1c1nc(-c2cc(-c3ccon3)n(Cc3ccccc3F)n2)ncc1F (centres undefined)	> 1 µM
CC(=O)c1cc(-c2ncc(F)c(N3CCC[C@H](C)[C@@H]3OC=O)n2)nn1Cc1ccccc1F	in the range around 0.55 µM
O=COC1c2ccc(O)cc2CCN1c1nc(-c2cc(-c3ccon3)n(Cc3ccccc3F)n2)ncc1F (centres undefined)	> 1 µM
COC(=O)N1CCN(c2nc(-c3cc(-c4ccon4)n(Cc4ccccc4F)n3)ncc2F)C(OC=O)C1 (centres undefined)	> 1 µM
